Measured values reported in ChEMBL document CHEMBL1201862, “PubChem BioAssay data set” (2004).
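96-well plates; 48 h exposure; 5 concentrations. Endpoints by linear interpolation between flanking doses. Not reached: highest tested concentration assigned. GI50 is the concentration that inhibits growth by half.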 Active and inactive are the calls of the source. No stated cut-off is given here; in the data, active = GI50 up to about 1.1 µM and inactive = higher. Where a SMILES comes first, the peptide text is derived from it. The star is where a group is joined. Boc = CC(C)(C)OC(=O)*; OSu = O=C1CCC(=O)N1O*

Assays:
Experiment in all cases: NCI tumour cell line growth inhibition, 48 h
CCRF-CEM = test system: CCRF-CEM
HT-29 = test system: HT-29
SR = test system: SR
HCT-116 = test system: HCT-116
EKVX = test system: EKVX
NCI-H460 = test system: NCI-H460
SK-OV-3 = test system: SK-OV-3
SK-MEL-28 = test system: SK-MEL-28
RPMI-8226 = test system: RPMI-8226
SF-539 = test system: SF-539
SNB-19 = test system: SNB-19
MDA-N = test system: MDA-N
HOP-62 = test system: HOP-62
MDA-MB-231 = test system: MDA-MB-231
K562 = test system: K562
UO-31 = test system: UO-31
A498 = test system: A498

Row | SMILES | GI50 (CCRF-CEM) | GI50 (HT-29) | GI50 (SR) | GI50 (HCT-116) | GI50 (EKVX) | GI50 (NCI-H460) | GI50 (SK-OV-3) | GI50 (SK-MEL-28) | GI50 (RPMI-8226) | GI50 (SF-539) | GI50 (SNB-19) | GI50 (MDA-N) | GI50 (HOP-62) | GI50 (MDA-MB-231) | GI50 (K562) | GI50 (UO-31) | GI50 (A498)
1 | Nc1ccccc1OCc1cc(=O)c(OCc2ccccc2)co1 | > 100 µM (inactive) | 5.05 µM (inactive) | > 100 µM (inactive) | 64.7 µM (inactive) | 24.1 µM (inactive) | 7.62 µM (inactive) | 23.6 µM (inactive) | > 100 µM (inactive) | 15 µM (inactive) | 21.6 µM (inactive) | > 100 µM (inactive) | 19.1 µM (inactive) | 33 µM (inactive) | 19.9 µM (inactive) | 2.75 µM (inactive) |  | 
2 | COc1cc(/C=c2/c3ccccc3n3c2cc(-c2ccccc2)[n+]3C)cc(OC)c1OC | 3.52 µM (inactive) | 3.07 µM (inactive) |  | 2.62 µM (inactive) | 5.15 µM (inactive) | 4.58 µM (inactive) | 5.92 µM (inactive) | 5.78 µM (inactive) | 2.55 µM (inactive) | 2.86 µM (inactive) | 5.48 µM (inactive) | 4.04 µM (inactive) | 5.47 µM (inactive) | 4.06 µM (inactive) | 2.74 µM (inactive) | 5.12 µM (inactive) | 16 µM (inactive)
3 | CC(=N/NC(N)=S)/C(C)=N/NC(N)=S | > 100 µM (inactive) | > 100 µM (inactive) | > 100 µM (inactive) | > 100 µM (inactive) | > 100 µM (inactive) | > 100 µM (inactive) |  | > 100 µM (inactive) | > 100 µM (inactive) | > 100 µM (inactive) | > 100 µM (inactive) | > 100 µM (inactive) | > 100 µM (inactive) | > 100 µM (inactive) | > 100 µM (inactive) | > 100 µM (inactive) | 
4 | O=CC12CCCN1CCC2 | > 100 µM (inactive) | > 100 µM (inactive) | > 100 µM (inactive) | > 100 µM (inactive) | > 100 µM (inactive) | > 100 µM (inactive) | > 100 µM (inactive) | > 100 µM (inactive) |  |  | > 100 µM (inactive) | > 100 µM (inactive) | > 100 µM (inactive) | > 100 µM (inactive) | > 100 µM (inactive) | > 100 µM (inactive) | 
5 | Cc1nn(C(=O)c2ccc(Cl)cc2)c2c1C(c1ccccc1[N+](=O)[O-])SC(=N)N2 (centres undefined) | > 10 µM (inactive) | > 10 µM (inactive) | > 10 µM (inactive) | > 10 µM (inactive) | > 10 µM (inactive) | > 10 µM (inactive) | > 10 µM (inactive) |  | > 10 µM (inactive) | > 10 µM (inactive) | > 10 µM (inactive) | > 10 µM (inactive) | > 10 µM (inactive) | > 10 µM (inactive) | > 10 µM (inactive) |  | 
6 | CN1CCN(c2n[nH]c(=O)c3c2nnn3Cc2ccccc2)CC1 | > 100 µM (inactive) | 38 µM (inactive) | > 100 µM (inactive) | > 100 µM (inactive) | > 100 µM (inactive) | > 100 µM (inactive) |  | > 100 µM (inactive) | > 100 µM (inactive) |  | > 100 µM (inactive) | 0.482 µM (active) | > 100 µM (inactive) | > 100 µM (inactive) | > 100 µM (inactive) | 71.6 µM (inactive) | 
7 | CCCC(CCC(=O)O)(CCC(=O)O)[N+](=O)[O-] |  | > 100 µM (inactive) | > 100 µM (inactive) | > 100 µM (inactive) | > 100 µM (inactive) | > 100 µM (inactive) | > 100 µM (inactive) |  | > 100 µM (inactive) | > 100 µM (inactive) | > 100 µM (inactive) | > 100 µM (inactive) |  | > 100 µM (inactive) | > 100 µM (inactive) | > 100 µM (inactive) | 
8 | CC(NC(=O)C(NC(=O)OC(C)(C)C)C(C)C)C(=O)NCC(=O)ON1C(=O)CCC1=O (stereo not drawn) (Boc-Val-Ala-Gly-OSu; configuration not given here) |  | > 100 µM (inactive) | > 100 µM (inactive) | > 100 µM (inactive) | > 100 µM (inactive) | > 100 µM (inactive) | > 100 µM (inactive) | > 100 µM (inactive) | > 100 µM (inactive) | > 100 µM (inactive) | > 100 µM (inactive) | > 100 µM (inactive) | > 100 µM (inactive) | > 100 µM (inactive) | > 100 µM (inactive) | > 100 µM (inactive) | 
9 | CNc1nc(=O)c(C#N)c(-c2ccc(C)cc2)s1 | > 100 µM (inactive) | > 100 µM (inactive) | > 100 µM (inactive) | > 100 µM (inactive) | 67.6 µM (inactive) | > 100 µM (inactive) | > 100 µM (inactive) | > 100 µM (inactive) |  | > 100 µM (inactive) | > 100 µM (inactive) | > 100 µM (inactive) |  | > 100 µM (inactive) | > 100 µM (inactive) | > 100 µM (inactive) | 
10 | COCOc1cc(OCOC)cc(C(=O)Oc2ccccc2)c1 |  | > 100 µM (inactive) | 85.9 µM (inactive) | > 100 µM (inactive) | 91.4 µM (inactive) | > 100 µM (inactive) | > 100 µM (inactive) | > 100 µM (inactive) | 61.7 µM (inactive) | > 100 µM (inactive) | > 100 µM (inactive) | > 100 µM (inactive) | > 100 µM (inactive) | > 100 µM (inactive) | > 100 µM (inactive) | 78.5 µM (inactive) | > 100 µM (inactive)
11 | COc1ccccc1-c1cc(=O)c2ccccc2n1C1CC1 | 4.83 µM (inactive) | 0.0782 µM (active) | 2.95 µM (inactive) | 1.23 µM (inactive) |  | 2.74 µM (inactive) | 6.73 µM (inactive) |  | 1.71 µM (inactive) | 4.6 µM (inactive) | 4.86 µM (inactive) | 4.06 µM (inactive) | 3.95 µM (inactive) | 3.76 µM (inactive) | 9.68 µM (inactive) | 3.85 µM (inactive) | 
12 | CCN(CC)CCCC(C)Nc1cc(/C=C/c2ccc(Cl)cc2)nc2cc(N(C)C)ccc12 (centres undefined) | 1.21 µM (inactive) | 1.34 µM (inactive) | 1.25 µM (inactive) | 1.24 µM (inactive) | 1.73 µM (inactive) | 1.67 µM (inactive) |  | 1.74 µM (inactive) |  | 2.15 µM (inactive) | 1.82 µM (inactive) | 1.47 µM (inactive) | 1.89 µM (inactive) | 1.22 µM (inactive) | 0.272 µM (active) | 2.04 µM (inactive) | 1.69 µM (inactive)
13 | N#CCCC(C=O)(CCC#N)CCC#N | > 100 µM (inactive) | > 100 µM (inactive) | > 100 µM (inactive) | > 100 µM (inactive) | > 100 µM (inactive) | > 100 µM (inactive) | > 100 µM (inactive) | > 100 µM (inactive) |  | > 100 µM (inactive) | > 100 µM (inactive) | > 100 µM (inactive) |  | > 100 µM (inactive) | > 100 µM (inactive) | > 100 µM (inactive) | > 100 µM (inactive)
14 | CCCCCCCCC/C=C1\CC(CO)(COC(=O)C2CCCCC2)OC1=O (centres undefined) | 12.9 µM (inactive) | 19.7 µM (inactive) | 32.4 µM (inactive) | 23 µM (inactive) | 17.9 µM (inactive) | 14.5 µM (inactive) | 25.8 µM (inactive) | 15.6 µM (inactive) |  |  | 21.8 µM (inactive) | 16.7 µM (inactive) | 13.4 µM (inactive) | 19.7 µM (inactive) | 11 µM (inactive) | 20.1 µM (inactive) | 22.1 µM (inactive)
15 | Cc1ccsc1/C=N/Nc1ncccn1 | > 100 µM (inactive) | > 100 µM (inactive) |  | > 100 µM (inactive) | > 100 µM (inactive) |  | > 100 µM (inactive) | > 100 µM (inactive) | > 100 µM (inactive) |  | > 100 µM (inactive) | > 100 µM (inactive) | > 100 µM (inactive) | > 100 µM (inactive) | > 100 µM (inactive) | > 100 µM (inactive) | > 100 µM (inactive)
16 | N[C@H]1CCC[C@@H](O)C1O (some centres undefined) |  | > 100 µM (inactive) | > 100 µM (inactive) | > 100 µM (inactive) | > 100 µM (inactive) | > 100 µM (inactive) | > 100 µM (inactive) | > 100 µM (inactive) | > 100 µM (inactive) |  |  | > 100 µM (inactive) | > 100 µM (inactive) | > 100 µM (inactive) | > 100 µM (inactive) |  | > 100 µM (inactive)
17 | COC(=O)C1CCCCCCCCCCC12SCCCS2 (centres undefined) | 23 µM (inactive) | 32.8 µM (inactive) | 11.5 µM (inactive) | 16.3 µM (inactive) | 19.4 µM (inactive) | 37.2 µM (inactive) | 49.5 µM (inactive) | 18.4 µM (inactive) |  | 25.3 µM (inactive) | 18.2 µM (inactive) | 30.8 µM (inactive) | 21.2 µM (inactive) | 21.7 µM (inactive) | 24.5 µM (inactive) | 18.9 µM (inactive) | 29.5 µM (inactive)
18 | COc1ccc(C(=O)N(C(=O)N2CCN(c3ccccc3)CC2)S(=O)(=O)c2ccccc2)cc1 | 25.1 µM (inactive) | 28.1 µM (inactive) | 18.8 µM (inactive) | 18.8 µM (inactive) | 20.7 µM (inactive) | 32.4 µM (inactive) | 86.5 µM (inactive) | 30.8 µM (inactive) |  | 17.8 µM (inactive) | 24.7 µM (inactive) | 23.9 µM (inactive) | 35 µM (inactive) | 25.3 µM (inactive) | 24.2 µM (inactive) | 13.6 µM (inactive) | 53.8 µM (inactive)
19 | O=S(=O)(c1ccccc1)[C@@H]1[C@H]2C=C[C@](CS)(O2)[C@H]1S(=O)(=O)c1ccccc1 | 2.46 µM (inactive) | > 100 µM (inactive) | 25.6 µM (inactive) | 13.3 µM (inactive) | 78.9 µM (inactive) | > 100 µM (inactive) | > 100 µM (inactive) | > 100 µM (inactive) |  |  | > 100 µM (inactive) | 82.8 µM (inactive) | > 100 µM (inactive) | > 100 µM (inactive) | 14.4 µM (inactive) | > 100 µM (inactive) | > 100 µM (inactive)
